Measured values published in ChEMBL document CHEMBL5370637, “Receptor Interacting Ser/Thr-Protein Kinase 2 as a New Therapeutic Target” (J Med Chem, 2023).

Columns and labels:
[1] = target: T1, Receptor-interacting serine/threonine-protein kinase 2 (Homo sapiens, UniProt O43353)
[2] = target: T1, Receptor-interacting serine/threonine-protein kinase 2; test: Inhibition of RIPK2 (unknown origin)
[3] = target: T1, Receptor-interacting serine/threonine-protein kinase 2; test: Inhibition of human RIPK2 assessed as inhibition of autophosphorylation incubated for 45 to 60 mins in presence of 32P-gamma-ATP by immunoprecipitation analysis
[4] = target: T1, Receptor-interacting serine/threonine-protein kinase 2; test: Inhibition of recombinant RIPK2 (unknown origin) expressed in insect cells using RBER-CHKtide as substrate assessed as inhibition of tyrosine autophosphorylation preincubated with compound for 15 mins followed by substrate addition and measured after 30 mins; parameters: species or system Insect cell
[5] = Induction of apoptosis in human GBM1 cells incubated for 48 hrs by immunofluorescent analysis; type: functional, cell-based; details: GBM1, 48 h
[6] = target: T1, Receptor-interacting serine/threonine-protein kinase 2; test: Inhibition of recombinant RIPK2 (unknown origin) using CRRKSLVGTPYWMAPE peptide as substrate assessed as inhibition of autophosphorylation incubated for 90 mins in presence of ATP by Transcreener ADP FP assay; parameters: species or system Insect cell
MAP kinase p38 = MAP kinase p38 (Homo sapiens, UniProt O15264+Q15759+Q16539+P53778); test: Inhibition of p38 (unknown origin) by KINOMEscan assay; type: protein assay
[7] = Inhibition of RIPK (unknown origin) by KINOMEscan assay; parameters: species or system Homo sapiens
[8] = target: Epidermal growth factor receptor (Homo sapiens, UniProt P00533); test: Inhibition of EGFR (unknown origin) by KINOMEscan assay
Sequence of Epidermal growth factor receptor (P00533 whole entry): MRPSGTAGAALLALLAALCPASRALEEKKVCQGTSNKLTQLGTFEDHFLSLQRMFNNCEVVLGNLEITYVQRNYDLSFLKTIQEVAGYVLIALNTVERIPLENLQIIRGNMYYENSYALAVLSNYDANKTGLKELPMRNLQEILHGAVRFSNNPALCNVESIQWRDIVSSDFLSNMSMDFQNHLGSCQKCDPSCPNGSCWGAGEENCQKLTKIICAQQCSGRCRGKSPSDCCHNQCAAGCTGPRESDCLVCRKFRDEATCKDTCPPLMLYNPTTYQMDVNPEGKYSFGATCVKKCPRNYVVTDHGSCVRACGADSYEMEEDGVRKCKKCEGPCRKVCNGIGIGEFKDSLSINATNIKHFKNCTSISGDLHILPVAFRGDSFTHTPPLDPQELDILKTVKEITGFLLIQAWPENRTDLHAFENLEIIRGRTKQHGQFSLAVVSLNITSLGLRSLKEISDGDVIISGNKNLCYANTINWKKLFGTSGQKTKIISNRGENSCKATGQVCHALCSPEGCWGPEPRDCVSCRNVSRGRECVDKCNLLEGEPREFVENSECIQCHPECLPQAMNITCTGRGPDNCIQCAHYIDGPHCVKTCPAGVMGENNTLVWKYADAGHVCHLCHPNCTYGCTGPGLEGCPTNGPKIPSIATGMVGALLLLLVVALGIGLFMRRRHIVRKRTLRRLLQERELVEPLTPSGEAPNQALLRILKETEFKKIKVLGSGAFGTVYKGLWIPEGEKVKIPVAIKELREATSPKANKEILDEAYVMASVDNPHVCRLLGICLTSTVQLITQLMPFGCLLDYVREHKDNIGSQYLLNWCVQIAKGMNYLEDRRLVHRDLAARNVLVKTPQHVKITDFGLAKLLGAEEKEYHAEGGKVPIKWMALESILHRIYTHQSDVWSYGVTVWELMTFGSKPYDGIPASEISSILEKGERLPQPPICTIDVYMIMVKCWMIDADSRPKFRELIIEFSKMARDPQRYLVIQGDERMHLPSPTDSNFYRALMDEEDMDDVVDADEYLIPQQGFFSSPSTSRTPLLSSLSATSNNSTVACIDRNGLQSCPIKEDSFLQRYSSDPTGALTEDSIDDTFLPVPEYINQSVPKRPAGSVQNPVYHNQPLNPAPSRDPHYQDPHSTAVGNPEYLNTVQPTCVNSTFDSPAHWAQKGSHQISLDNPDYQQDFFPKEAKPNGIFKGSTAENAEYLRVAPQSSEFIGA

T1 sequence (O43353 whole entry): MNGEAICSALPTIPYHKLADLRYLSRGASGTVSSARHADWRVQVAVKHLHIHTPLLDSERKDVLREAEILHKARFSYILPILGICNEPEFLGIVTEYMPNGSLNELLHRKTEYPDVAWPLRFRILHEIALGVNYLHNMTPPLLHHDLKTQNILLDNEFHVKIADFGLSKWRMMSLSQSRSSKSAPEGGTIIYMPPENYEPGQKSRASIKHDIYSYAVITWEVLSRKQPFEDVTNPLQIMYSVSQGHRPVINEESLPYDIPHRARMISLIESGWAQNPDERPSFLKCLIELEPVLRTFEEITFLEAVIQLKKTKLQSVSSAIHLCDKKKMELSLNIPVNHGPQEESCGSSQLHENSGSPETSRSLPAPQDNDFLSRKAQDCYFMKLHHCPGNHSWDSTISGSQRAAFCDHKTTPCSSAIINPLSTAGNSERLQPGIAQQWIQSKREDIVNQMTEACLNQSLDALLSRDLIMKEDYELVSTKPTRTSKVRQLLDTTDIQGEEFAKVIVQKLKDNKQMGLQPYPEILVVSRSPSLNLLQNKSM

## Nc1nccc(-c2c(-c3ccc(F)cc3)ncn2C2CCNCC2)n1 [SB-220025]
[1]
  IC50: 700 nM

## N=C(N)NCCC[C@@H]1NC(=O)/C(=C/c2c[nH]c3cc(Br)ccc23)NC1=O [BARETTIN]
[2]
  IC50: 8000 nM

## Cc1ccc(C(=O)Nc2cccc(-c3nccn3C)c2)cc1NC(=O)c1ccccc1
[3]
  IC50: 10 nM

## c1cc2cc(n1)NCCOCCNc1ccn3ncc-2c3n1
[4]
  IC50: 14.1 nM

## Clc1cc2cc(c1)-c1cnn3ccc(nc13)NCCOCCO2
[4]
  IC50: 5.3 nM

## O=[N+]([O-])c1ccc(-c2nc(-c3ccncc3)c(-c3ccc(F)cc3)[nH]2)cc1 [PD-169316]
[1]
  IC50: 70 nM

## Cc1n(Cc2ccc(F)cc2)c2c([n+]1Cc1ccccc1)C(=O)c1ccccc1C2=O
[5]
  EC50: 68 nM

## Cc1ccc(-c2nn(C(C)(C)CNC(=O)c3ccncc3)c3ncnc(N)c23)cc1
[6]
  IC50: 134 nM
MAP kinase p38
  IC50: > 10000 nM
[7]
  IC50: > 10000 nM
[8]
  IC50: > 10000 nM
